From paper PMC10208040, “Computational docking and in vitro analysis identifies novel arylidene analogue FPMXY-14 against renal cancer cells by attenuating Akt” (Oncology Research, 2021)

Target: T1, Akt
T1 construct: gene AKT1
Assay: Z'-LYTE fluorescence-based coupled-enzyme kinase assay
Format: biochemical

- IC50: 148 nM
Structure (SMILES): Cc1ccc(C)c2c1CC(=Cc1ccc(C(C)C)cc1)C2=O [FPMXY-14, 2-(4-isopropyl-benzylidene)-4,7-dimethyl-indan-1-one]
